Test results reported in US6534676B2, “Method to treat chronic heart failure and/or elevated cholesterol levels using 3,5-diiodothyropropionic acid and method to prepare same” (The Arizona Board of Regents on Behalf of the University of …, priority 2001, dated 2003).

Columns and labels:
[1] = normal primates; cited from earlier work
[2] = Dose-ranging study of DITPA in normal volunteers: clinical variables and tolerability; type: in vivo, human; conditions: for Weight: normal volunteers n=7, oral, baseline 84.2 ± 2.6; for Weight / Heart Rate / Diastolic Blood Pressure / Systolic Blood Pressure: mean ± SE; for Heart Rate: baseline 55.4 ± 2.9; for Diastolic Blood Pressure: baseline 77.1 ± 3.5; for Systolic Blood Pressure: baseline 121.3 ± 4.4
Experimental: In clinical trials discussed below wherein DITPA was orally administered to volunteers and patients, the DITPA was mixed under the supervision of a registered pharmacist with lactose and packed into gelatin capsules containing 50 mg of the active ingredient. Identical capsules were packed with lactose to serve as placebo medication.
A dose-ranging study was performed with seven (7) normal volunteers. Study participants comprised men between the ages of 18 and 65 years of age. Before participating in the study, a complete physical examination, electrocardiogram, and echocardiogram were obtained. A complete blood count (CBC), blood chemistries (including liver enzymes and lipids profile), and thyroid function studies (total T3, total T4, free T4, rT3, and thyrotropin) were measured.
On day 1, these normal volunteers were started on 1.875 mg/kg in two divided doses per day. This treatment regimen was continued for two weeks. At the end of the second week, the initial laboratory studies were repeated. The dose was then doubled to 3.75 mg/kg and the volunteers were treated for two additional weeks. At the end of this time physical examination and all laboratory variables again were measured.
Volunteer data were analyzed using Student's paired t-test. Baseline data in DITPA and placebo groups were compared by Student's unpaired t-test. Comparison of placebo and drug treated groups was made by repeated measures ANOVA (SPSS Version 9.5, SPSS Chicago, 11). If P values for drug-time interactions were significant a priori contrasts were performed of the drug-time interaction for two weeks versus baseline. When data were available only at baseline and four week, comparisons were made by difference scores. Baseline values for each participant were subtracted from values after four weeks of treatment and the differences between DITPA and placebo treatments then were compared. P values by two-tailed testing less than 0.05 were considered to be significant.
As noted above, seven normal volunteers received DITPA at two dosage levels for two and four weeks.

[3] = post-infarction rats, border zone around the infarct; cited from earlier work
[4] = Dose-ranging study of DITPA in normal volunteers: thyroid hormone measurements; type: in vivo, human; conditions: for Thyrotropin: baseline 3.53 ± 1.00; for Thyrotropin / Free T4 / Total T4 / rT3: mean ± SEM; for Free T4: baseline 1.04 ± .04; for Total T4: baseline 8.73 ± .85; for rT3: baseline 23.23 ± 1.71
Experimental: A dose-ranging study was performed with seven (7) normal volunteers. Study participants comprised men between the ages of 18 and 65 years of age. Before participating in the study, a complete physical examination, electrocardiogram, and echocardiogram were obtained. […] On day 1, these normal volunteers were started on 1.875 mg/kg in two divided doses per day. This treatment regimen was continued for two weeks. At the end of the second week, the initial laboratory studies were repeated. The dose was then doubled to 3.75 mg/kg and the volunteers were treated for two additional weeks. At the end of this time physical examination and all laboratory variables again were measured. Volunteer data were analyzed using Student's paired t-test. Baseline data in DITPA and placebo groups were compared by Student's unpaired t-test. Comparison of placebo and drug treated groups was made by repeated measures ANOVA (SPSS Version 9.5, SPSS Chicago, 11). If P values for drug-time interactions were significant a priori contrasts were performed of the drug-time interaction for two weeks versus baseline. When data were available only at baseline and four week, comparisons were made by difference scores. Baseline values for each participant were subtracted from values after four weeks of treatment and the differences between DITPA and placebo treatments then were compared. […] Table II summarizes thyroid hormone measurements after two and four weeks of treatment with DITPA in normal volunteers.

[5] = post-infarction models, alone or with an angiotensin I-converting enzyme inhibitor; cited from earlier work
[6] = test system: single myocytes from infarcted rabbit hearts; conditions: cited from earlier work
[7] = Heart failure patients: serum lipid levels; type: in vivo, human; conditions: for LDL-cholesterol: text baseline 107.3±42.8 mg/dL; for HDL Cholesterol / Triglyceride: serum; for HDL Cholesterol: baseline 32.8 ± 2.8; for Triglyceride: baseline 248.7 ± 40.4
Experimental: DITPA cross-reacted with antibodies for detection of T3, which consequently was not measured. Renal and hepatic function tests also were performed. Patients were randomly assigned in double-blind fashion to receive either DITPA at a dosage of 1.875 mg/kg daily or placebo in two or three divided doses. For the first four days of drug administration patients were monitored on a telemetry unit. Thereafter, weekly electrocardiograms were performed and patients were examined for changes in thyroid or cardiac status or evidence of drug toxicity. At the end of two weeks an echocardiogram was obtained. If there was no clinical evidence of progression of heart failure or development of an arrhythmia the dose of DITPA was increased to 3.75 mg/kg daily. After an additional two weeks of treatment with the higher dosage of the drug patients were readmitted to the hospital and the tests performed in the initial evaluation were repeated. Right heart catheterization was performed after the patient had been fasted overnight; no premedication was given. Pulmonary artery, pulmonary capillary wedge and right heart pressures were measured with a 7 Fr Swan-Ganz catheter introduced into the right femoral vein. Blood pressures were recorded with an automated arm cuff system. After an initial stabilization period of 20 to 30 minutes, the resting hemodynamic measurements were obtained. Thermodilution cardiac output measurements were averaged from five recordings after discarding the highest and lowest values. All blood tests were performed in the Clinical Pathology Laboratory at the Southern Arizona Veterans Administration Health Care System.

[8] = normal volunteers, after 2 weeks (1.875 mg/kg/day)
[9] = normal volunteers, after 4 weeks (3.75 mg/kg/day)
[10] = heart failure patients, after four weeks
[11] = heart failure patients, after two weeks
[12] = after 2 weeks (1.875 mg/kg daily)
[13] = after 4 weeks (3.75 mg/kg daily)

In the case of `O=C(O)CCc1cc(I)c(Oc2ccc(O)cc2)c(I)c1` [DITPA, 3,5-Diiodothyropropionic acid], the “in vivo force-frequency and relaxation-frequency relationships” value [1] is given as “enhances the in vivo force-frequency and relaxation-frequency relationships”, the echocardiographic parameters ([2]; normal volunteers) is given as “not changed significantly” and the Weight ([2]; after 2 weeks (1.875 mg/kg/day)) is given as 83.5 ± 2.6 kg. For the same molecule, the Weight ([2]; after 4 weeks (last 2 weeks 3.75 mg/kg/day)) was 83.6 ± 2.6 kg, the adverse effects ([2]; normal volunteers, 1.875 then 3.75 mg/kg, four weeks) was “no adverse effects were noted” and the “Heart Rate” value [2, 8] was 58.1 ± 3.2 beats/min. The “Diastolic Blood Pressure” value [2, 8] was 76.1 ± 2.9 mm Hg, the “Systolic Blood Pressure” value [2, 8] was 122.0 ± 5.4 mm Hg and the “Heart Rate” value [2, 9] was 64.3 ± 3.4 beats/min. The “Diastolic Blood Pressure” value [2, 9] was 71.6 ± 3.8 mm Hg, the “Systolic Blood Pressure” value [2, 9] was 116.3 ± 6.1 mm Hg and the “changes in blood pressure and pulse rate” value ([2]; normal volunteers, at either dose) was “no significant changes”. For the same molecule, the tolerability ([2]; normal volunteers, both doses) was “well tolerated”, the capillary growth [3] was “increase in capillary growth” and the Thyrotropin ([4]; normal volunteers n=7, after 2 weeks (1.875 mg/kg/day)) was 0.69 ± .38 mu/L. The Thyrotropin ([4]; normal volunteers n=7, after 4 weeks (3.75 mg/kg/day)) was 0.44 ± .29 mu/L, the “Free T4” value [4, 8] was 0.95 ± .07 ng/dL and the “Total T4” value [4, 8] was 5.76 ± .39 µg/dL. The rT3 [4, 8] was 47.41 ± 7.11 ng/dL, the “Free T4” value [4, 9] was 1.05 ± .06 ng/dL and the “Total T4” value [4, 9] was 5.89 ± .44 µg/dL. For the same molecule, the rT3 [4, 9] was 69.56 ± 9.93 ng/dL, the “average values for thyrotropin” value ([4]; normal volunteers, after two additional weeks at 3.75 mg/kg, normal range 0.48 to 4.0 μU/ml) was 0.44±0.29 μU/ml and the “left ventricular (LV) performance” value [5] was “improve left ventricular (LV) performance”. The “calcium transport in the sarcoplasmic reticulum (SR)” value ([6]; post-infarction heart failure in rabbits) was “enhances calcium transport in the sarcoplasmic reticulum (SR)”, the contraction-frequency relationship ([6]; single myocytes from infarcted rabbit hearts) was “prevents the flattened contraction-frequency relationship” and the cholesterol ([7]; heart failure patients n=9, serum, after 2 weeks (1.875 mg/kg daily), baseline 198.9 ± 19.7) was 160.6 ± 14.3^++ ng/dL. The LDL-cholesterol ([7]; heart failure patients, after 4 weeks) was 80.5 ± 13.7 mg/dL, the “decrease in LDL-cholesterol” value [7, 10] was 25% and the decrease in cholesterol [7, 10] was 24%. For the same molecule, the “decrease in serum triglycerides” value ([7]; heart failure patients, after four weeks, P=0.005) was 35%, the cholesterol ([7]; heart failure patients, after four weeks, text baseline 185.8±46.9 mg/dL, P=0.013) was 140.7 ± 16.2 mg/dL and the “average decrease in LDL-cholesterol” value [7, 11] was 17%. The “average decrease in cholesterol” value [7, 11] was 14%, the “decrease in serum triglycerides” value ([7]; heart failure patients, after two weeks, P<0.05) was 11% and the cholesterol ([7]; heart failure patients, after two weeks, text baseline 185.8±46.9 mg/dL, P<0.05) was 160.6 ± 14.3 mg/dL. The LDL-cholesterol ([7]; heart failure patients, at two weeks) was 89.4 ± 12.7 mg/dL, the “HDL Cholesterol” value [7, 12] was 30.6 ± 2.0 mg/dL and the Triglyceride [7, 12] was 203.0 ± 30.4^++ mg/dL. For the same molecule, the “HDL Cholesterol” value [7, 13] was 31.4 ± 3.1 mg/dL, the Triglyceride [7, 13] was 143.7 ± 21.1 mg/dL and the “patients in whom LDL-cholesterol decreased” value ([7]; treated for 4 weeks) was 8 of 9.
